As usually defined, the IC50 is the concentration needed to halve the response being measured.

In experiment [1] the target is T1, IDO1 (Homo sapiens, UniProt P14902). Briefly: IDO1 cellular activity using Hela cells (IFN-gamma induced IDO expression, kynurenine absorbance at 480 nm). It is filed as cell-based. Particulars: IDO induced with interferon gamma 50 ng/ml, 24 h compound incubation, read-out: Inhibitory Activity (IC50). Here is the method:
Hela cells were seeded at a density of 20000 cells/well in 100 μl of a culture medium (EMEM supplemented with 10% FBS, penicillin 100 U/ml, and streptomycin 100 μg/ml) in a tissue culture-treated 96 well plate. The cells were cultured in a 5% carbon dioxide incubator for 24 hours, treated with recombinant human interferon gamma at the concentration of 50 ng/ml, and then cultured for 48 hours in a 5% carbon dioxide incubator to induce IDO expression.
The activities were measured using IDO1 cellular activity-measuring substrate (IDO1 cellular activity quickDetect supplements catalog: #62000-2, BPS Bioscience). Specifically, an assay medium was prepared by diluting IDO1 assay medium substrate 1 and IDO1 assay medium supplement 2 in a culture medium at a ratio of 1:100, respectively. The test compounds were diluted to the predetermined concentrations in the fresh assay medium. After removing the culture medium using a multi-pipet, 200 μl of each assay medium containing the test material was added into the respective well, followed by incubating in a 5% carbon dioxide incubator for 24 hours. The next day, 140 μl of culture medium from each well was transferred to a new 96-well plate. 10 μl of 6.1N trichloroacetic acid was added into each well, which was then cultured in a 50° C. incubator for 30 minutes. The plate was centrifuged at 2500 rpm for 10 minutes to settle any sediment. A detection reagent solution was prepared by diluting the detection reagent (component D kit, catalog: #62000-2, BPS Bioscience) 50-fold in acetic acid. 100 μl of the supernatant taken from the centrifuged plate was transferred to a new transparent 96-well plate and then 100 μl of the detection reagent solution was added thereto. After reacting at room temperature for 10 minutes, absorbance was measured at 480 nm wavelength. For analysis of the results, the absorbance (At) of the well containing Hela cells in which IDO protein expression was induced without treatment of an inhibitor was 100%; and the absorbance (Ab) of the well containing Hela cells in which IDO protein expression was not induced was 0. The % absorbance was calculated according to the following equation: % Absorbance=(A−Ab)/(At−Ab), A=absorbance of the well treated with the test compound.
The results obtained by calculating the 50% inhibitory concentration (C50) of each compound, from the absorbance values obtained as described above, are shown in Table 1 below.

The target in experiment [2] is T1, IDO1. Briefly: IDO1 cellular activity using HEK293 cells transfected with IDO1 expression vector. Details: host or cells: HEK293 cells, transient transfection with Lipofectamine 2000. It is filed as cell-based. Particulars: 24 h compound incubation, read-out: Inhibitory Activity (IC50). How it is done: HEK293 cells were seeded at a density of 30000 cells/well in 100 μl of a culture medium (DMEM supplemented with 10% FBS, penicillin 100 U/ml, and streptomycin 100 μg/ml) in a tissue culture-treated 96 well plate. The cells were cultured in a 5% carbon dioxide incubator for 24 hours, transfected with the IDO1 expression vector (component A in IDO1 cell-based assay kit, catalog #72031, BPS Bioscience) using Lipofectamine 2000 (Life Technologies, #11668027), and then cultured for 24 hours in a 5% carbon dioxide incubator to express the IDO protein.
The activities were measured using a IDO1 cell-based assay kit (catalog #72031, BPS Bioscience). Specifically, an assay medium was prepared by diluting IDO1 assay medium substrate 1 and IDO1 assay medium supplement 2 in a culture medium at a ratio of 1:100, respectively. The test compounds were diluted to the predetermined concentrations in the fresh assay medium. After removing the culture medium using a multi-pipet, 200 μl of each assay medium containing the test material was added into respective well, followed by incubating in a 5% carbon dioxide incubator for 24 hours. The next day, 140 μl of culture medium from each well was transferred to a new 96-well plate. 10 μl of 6.1N trichloroacetic acid was added into each well, which was then cultured in a 50° C. incubator for 30 minutes. The plate was centrifuged at 2500 rpm for 10 minutes to settle any sediment. A detection reagent solution was prepared by diluting the detection reagent (component D in IDO1 cell-based assay kit, catalog #72031 BPS Bioscience) 50-fold in acetic acid. 100 μl of the supernatant taken from the centrifuged plate was transferred to a new transparent 96-well plate and then 100 μl of the detection reagent solution was added thereto. After reacting at room temperature for 10 minutes, absorbance was measured at 480 nm wavelength. For analysis of the results, the absorbance (At) of the well containing HEK293 cells in which IDO protein was expressed without treatment of an inhibitor was 100%; and the absorbance (Ab) of the well containing HEK293 cells in which IDO protein was not expressed was 0. The % absorbance was calculated according to the following equation: % Absorbance=(A−Ab)/(At−Ab), A=absorbance of the well treated with the test compound.

T1 sequence (P14902 whole entry): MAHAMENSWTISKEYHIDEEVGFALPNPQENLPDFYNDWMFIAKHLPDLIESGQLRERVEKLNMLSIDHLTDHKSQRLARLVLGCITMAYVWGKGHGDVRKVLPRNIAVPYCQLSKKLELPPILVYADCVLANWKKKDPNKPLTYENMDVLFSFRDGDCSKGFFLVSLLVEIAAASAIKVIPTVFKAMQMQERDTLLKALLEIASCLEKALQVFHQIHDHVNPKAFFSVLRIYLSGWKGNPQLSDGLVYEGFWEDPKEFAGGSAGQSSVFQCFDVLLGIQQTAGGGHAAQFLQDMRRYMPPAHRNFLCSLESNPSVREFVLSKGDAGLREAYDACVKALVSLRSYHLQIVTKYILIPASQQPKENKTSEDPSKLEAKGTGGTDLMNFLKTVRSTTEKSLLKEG

As for `C[C@H](C[C@H]1CC[C@@H](c2ccnc3ccc(F)cc32)CC1)Nc1ncnc2cc(Cl)ccc12` [Example 3, 7-chloro-N-((R)-1-((cis)-4-(6-fluoroquinolin-4-yl)cyclohexyl)propan-2-yl)quinazolin-4-amine], the IC50 in experiment [1] worked out at 14 nM.
Turning to `COc1ccc2nc(N[C@@H](C[C@H]3CC[C@@H](c4ccnc5ccc(F)cc54)CC3)C3CC3)sc2c1` [Example 16, N-((S)-1-cyclopropyl-2-((cis)-4-(6-fluoroquinolin-4-yl)cyclohexyl)ethyl)-6-methoxybenzo[d]thiazol-2-amine], the IC50 in experiment [1] stood at 4 nM.
Turning to `CC[C@H](C[C@H]1CC[C@@H](c2ccnc3ccc(F)cc32)CC1)Nc1nc2ccc(OC)cc2s1` [Example 15, N-((R)-1-((cis)-4-(6-fluoroquinolin-4-yl)cyclohexyl)butan-2-yl)-6-methoxybenzo[d]thiazol-2-amine], in experiment [1], the IC50 stood at 5.1 nM.
Turning to `C[C@H](C[C@H]1CC[C@@H](c2ccnc3ccc(F)cc32)CC1)Nc1nc2ccccc2o1` [Example 24, N-((R)-1-((cis)-4-(6-fluoroquinolin-4-yl)cyclohexyl)propan-2-yl)benzo[d]oxazol-2-amine], the concentration for half-maximal inhibition (IC50) in experiment [1] was 17 nM.
With `C[C@H](C[C@H]1CC[C@H](c2ccnc3ccc(F)cc32)CC1)Nc1ncnc2cc(Cl)ccc12` [Example 4, 7-chloro-N-((R)-1-((trans)-4-(6-fluoroquinolin-4-yl)cyclohexyl)propan-2-yl)quinazolin-4-amine], the IC50 in experiment [1] came to 11 nM.
For `C[C@H](C[C@H]1CC[C@@H](c2ccnc3ccc(F)cc32)CC1)Nc1cc(=O)oc2cc(Br)ccc12` [Example 9, 7-bromo-4-(((R)-1-((cis)-4-(6-fluoroquinolin-4-yl)cyclohexyl)propan-2-yl)amino)-2H-chromen-2-one], the concentration for half-maximal inhibition (IC50) in experiment [1] was found to be 18 nM.
Take `Cc1ccc2c(N[C@H](C)C[C@H]3CC[C@H](c4ccnc5ccc(F)cc54)CC3)nc(Cl)nc2c1` [Example 57, 2-chloro-N-((R)-1-((trans)-4-(6-fluoroquinolin-4-yl)cyclohexyl)propan-2-yl)-7-methylquinazolin-4-amine]: the IC50 in experiment [2] was 25.2 nM.
Take `C[C@H](C[C@H]1CC[C@@H](c2ccnc3ccc(F)cc32)CC1)Nc1nccc2cc(Cl)ccc12` [Example 34, 6-chloro-N-((R)-1-((cis)-4-(6-fluoroquinolin-4-yl)cyclohexyl)propan-2-yl)isoquinolin-1-amine]: the IC50 in experiment [2] is 68.6 nM.
For `C[C@H](C[C@H]1CC[C@@H](c2ccnc3ccc(F)cc32)CC1)Nc1nc(Cl)nc2cc(Cl)ccc12` [Example 40, 2,7-dichloro-N-((R)-1-((cis)-4-(6-fluoroquinolin-4-yl)cyclohexyl)propan-2-yl)quinazolin-4-amine], in experiment [2], the half-maximal inhibitory concentration (IC50) was 21.9 nM.
Regarding `C[C@H](C[C@H]1CC[C@H](c2ccnc3ccc(F)cc32)CC1)Nc1nc(Cl)nc2cc(Br)ccc12` [Example 56, 7-bromo-2-chloro-N-((R)-1-((trans)-4-(6-fluoroquinolin-4-yl)cyclohexyl)propan-2-yl)quinazolin-4-amine], the half-inhibitory concentration (IC50) in experiment [2] amounted to 19.3 nM.
As for `C[C@H](C[C@H]1CC[C@H](c2ccnc3ccc(F)cc32)CC1)Nc1nc(Cl)nc2cc(F)ccc12` [Example 54, 2-chloro-7-fluoro-N-((R)-1-((trans)-4-(6-fluoroquinolin-4-yl)cyclohexyl)propan-2-yl)quinazolin-4-amine], the IC50 in experiment [2] turned out to be 43.6 nM.
Still for that read-out and setting: the figure for `C[C@H](C[C@H]1CC[C@@H](c2ccnc3ccc(F)cc32)CC1)Nc1nc(Cl)nc2c(F)cccc12` [Example 69, 2-chloro-8-fluoro-N-((R)-1-((cis)-4-(6-fluoroquinolin-4-yl)cyclohexyl)propan-2-yl)quinazolin-4-amine] is 18.8 nM.
`C[C@H](C[C@H]1CC[C@H](c2ccnc3ccc(F)cc32)CC1)Nc1nc(Cl)nc2c(F)cccc12` [Example 50, 2-chloro-8-fluoro-N-((R)-1-((trans)-4-(6-fluoroquinolin-4-yl)cyclohexyl)propan-2-yl)quinazolin-4-amine]: in experiment [2], the concentration for half-maximal inhibition (IC50) is 62.3 nM.
As to `COc1ccc2c(N[C@H](C)C[C@H]3CC[C@@H](c4ccnc5ccc(F)cc54)CC3)nc(Cl)nc2c1` [Example 67, 2-chloro-N-((R)-1-((cis)-4-(6-fluoroquinolin-4-yl)cyclohexyl)propan-2-yl)-7-methoxyquinazolin-4-amine], the IC50 in experiment [2] came out at 47.5 nM.
For the molecule `C[C@H](C[C@H]1CC[C@@H](c2ccnc3ccc(F)cc32)CC1)Nc1nc(Cl)nc2ccc(Cl)cc12` [Example 61, 2,6-dichloro-N-((R)-1-((cis)-4-(6-fluoroquinolin-4-yl)cyclohexyl)propan-2-yl)quinazolin-4-amine], the IC50 in experiment [2] was 406 nM.
With `C[C@H](C[C@H]1CC[C@@H](c2ccnc3ccc(F)cc32)CC1)Nc1nc2c(Cl)cccc2s1` [Example 35, 4-chloro-N-((R)-1-((cis)-4-(6-fluoroquinolin-4-yl)cyclohexyl)propan-2-yl)benzo[d]thiazol-2-amine], the IC50 in experiment [2] was 105 nM.
As for `C[C@H](C[C@H]1CC[C@@H](c2ccnc3ccc(F)cc32)CC1)Nc1nc(Cl)nc2c(Cl)cccc12` [Example 68, 2,8-dichloro-N-((R)-1-((cis)-4-(6-fluoroquinolin-4-yl)cyclohexyl)propan-2-yl)quinazolin-4-amine], the 50% inhibitory concentration (IC50) in experiment [2] is 50.5 nM.
Consider `C[C@H](C[C@H]1CC[C@@H](c2ccnc3ccc(F)cc32)CC1)Nc1nc2cc(F)c(Cl)cc2o1` [Example 43, 6-chloro-5-fluoro-N-((R)-1-((cis)-4-(6-fluoroquinolin-4-yl)cyclohexyl)propan-2-yl)benzo[d]oxazol-2-amine], for which the IC50 in experiment [2] came out at 6.3 nM.
Regarding `C[C@H](C[C@H]1CC[C@@H](c2ccnc3ccc(F)cc32)CC1)Nc1nc2ccc(Cl)c(Cl)c2o1` [Example 46, 6,7-dichloro-N-((R)-1-((cis)-4-(6-fluoroquinolin-4-yl)cyclohexyl)propan-2-yl)benzo[d]oxazol-2-amine], the half-maximal inhibitory concentration (IC50) in experiment [2] worked out at 17.2 nM.
Take `C[C@H](C[C@H]1CC[C@@H](c2ccnc3ccc(F)cc32)CC1)Nc1nc(Cl)nc2cc(C#N)ccc12` [Example 63, 2-chloro-4-(((R)-1-((cis)-4-(6-fluoroquinolin-4-yl)cyclohexyl)propan-2-yl)amino)quinazolin-7-carbonitrile]: the IC50 in experiment [2] is 27.5 nM.
Take `C[C@H](C[C@H]1CC[C@H](c2ccnc3ccc(F)cc32)CC1)Nc1nc(Cl)nc2cc(C#N)ccc12` [Example 55, 2-chloro-4-(((R)-1-((trans)-4-(6-fluoroquinolin-4-yl)cyclohexyl)propan-2-yl)amino)quinazolin-7-carbonitrile]: the IC50 in experiment [2] came out at 28.2 nM.
Same read-out and setting: the result for `C[C@H](C[C@H]1CC[C@@H](c2ccnc3ccc(F)cc32)CC1)Nc1nncc2cc(Cl)ccc12` [Example 39, 6-chloro-N-((R)-1-((cis)-4-(6-fluoroquinolin-4-yl)cyclohexyl)propan-2-yl)phthalazin-1-amine] reads 9.7 nM.

The record behind these values is patent US20240174636A1, “NOVEL INDOLEAMINE 2,3-DIOXYGENASE INHIBITORS, PROCESSES FOR THE PREPARATION THEREOF AND PHARMACEUTICAL COMPOSITIONS COMPRISING THE SAME” (YUHAN CORPORATION, priority 2021, published 2024).
